The record followed here is publication PMC7241567 (Journal of Enzyme Inhibition and Medicinal Chemistry, 2020).

Molecules are shown by their SMILES.

What all share (format): biochemical
In one assay the target is T1, PLK1 (Homo sapiens, UniProt P53350).
T1 construct: purchased Reaction Biology Corp. (Kinase HotSpot service)
The assay can be described thus: Reaction Biology Kinase HotSpot radiometric kinase assay.

The target in the next assay is T2, BRAF (V599E) (Homo sapiens, UniProt P15056, V600E).
T2 construct: purchased Reaction Biology Corp. (Kinase HotSpot service)
The description is as above.

Assay [1] deals with T3, FLT3 (Y591_V592 ins VDFREYEYD) (Homo sapiens, UniProt P36888, INS591VDFREYEYD).
T3 construct: purchased Reaction Biology Corp. (Kinase HotSpot service)
The assay can be described thus: Enzymatic activity against FLT3 mutants.

For the next assay, the target named is T4, GSK3b (Homo sapiens, UniProt P49841).
T4 construct: purchased Reaction Biology Corp. (Kinase HotSpot service)
The assay can be described thus: Reaction Biology Kinase HotSpot radiometric kinase assay.

The target in a further assay is T5, ABL1 (Homo sapiens, UniProt P00519).
T5 construct: purchased Reaction Biology Corp. (Kinase HotSpot service)
The description is as above.

Assay [2] has as its system other kinases including FMS and cKit. The assay can be described thus: Kinase panel screening, overall selectivity. Conditions: 36 different kinases, single dose of 10 µM. As for the experimental part:
Next, we investigated kinase panel screening of 7d and 7b over 36 different kinases at a single dose of 10 µM (Figure 5). […] High selectivity over cKit might be an opportunity to avoid myelosuppression toxicity, which was reported from a dual FLT3/cKit inhibitor[19–22]. It is a valuable result to secure such a kinase selectivity profile considering the similarities of the same type III receptor tyrosine kinase (FMS, cKit and FLT3).
3. Evaluation of IC50 and Selected Kinase Profiling
We used Reaction Biology Corp. Kinase HotSpotSM service (www.reactionbiology.com) for IC50 determination of all compounds and kinase profile. Assay protocol: In a final reaction volume of 25 μL, Peptide substrate, [[…]], 5 µM, ATP 10 µM, FLT3(h) (5-10 […]
mU) is incubated with 25 mM Tris pH 7.5, 0.02 mM EGTA, 0.66 mg/mL myelin basic protein, 10 mM Mg Acetate and [γ-33P-ATP] (specific activity approx. 500 cpm/pmol, concentration as required). The reaction is initiated by the addition of the Mg-ATP mix. After incubation for 40 minutes at room temperature, the reaction is stopped by the addition of 5 μL of a 3% phosphoric acid solution. 10 μL of the reaction is then spotted onto a P30 filtermat and washed three times for 5 minutes in 75 mM phosphoric acid and once in methanol prior to drying and […]

The target of another assay is T6, FGFR3 (Homo sapiens, UniProt P22607).
T6 construct: purchased Reaction Biology Corp. (Kinase HotSpot service)
The assay can be described thus: Reaction Biology Kinase HotSpot radiometric kinase assay.

The next assay deals with T7, LCK (Homo sapiens, UniProt P06239).
T7 construct: purchased Reaction Biology Corp. (Kinase HotSpot service)
Described as above.

A further assay deals with T8, EGFR (Homo sapiens, UniProt P00533).
T8 construct: purchased Reaction Biology Corp. (Kinase HotSpot service)
Described as above.

For another assay, the target named is T9, AXL (R499C) (Homo sapiens, UniProt P30530, R499C).
T9 construct: purchased Reaction Biology Corp. (Kinase HotSpot service)
The description is as above.

A further assay concerns the target T10, ROS/ROS1 (Homo sapiens, UniProt P08922).
T10 construct: purchased Reaction Biology Corp. (Kinase HotSpot service)
The description is as above.

In another assay the target is P38a/MAPK14 (Homo sapiens, UniProt Q16539). Described as above.
A further assay concerns the target T11, FLT3 (D835Y) (Homo sapiens, UniProt P36888, D835Y).
T11 construct: purchased Reaction Biology Corp. (Kinase HotSpot service)
T11 sequence (P36888 27-993 D835Y): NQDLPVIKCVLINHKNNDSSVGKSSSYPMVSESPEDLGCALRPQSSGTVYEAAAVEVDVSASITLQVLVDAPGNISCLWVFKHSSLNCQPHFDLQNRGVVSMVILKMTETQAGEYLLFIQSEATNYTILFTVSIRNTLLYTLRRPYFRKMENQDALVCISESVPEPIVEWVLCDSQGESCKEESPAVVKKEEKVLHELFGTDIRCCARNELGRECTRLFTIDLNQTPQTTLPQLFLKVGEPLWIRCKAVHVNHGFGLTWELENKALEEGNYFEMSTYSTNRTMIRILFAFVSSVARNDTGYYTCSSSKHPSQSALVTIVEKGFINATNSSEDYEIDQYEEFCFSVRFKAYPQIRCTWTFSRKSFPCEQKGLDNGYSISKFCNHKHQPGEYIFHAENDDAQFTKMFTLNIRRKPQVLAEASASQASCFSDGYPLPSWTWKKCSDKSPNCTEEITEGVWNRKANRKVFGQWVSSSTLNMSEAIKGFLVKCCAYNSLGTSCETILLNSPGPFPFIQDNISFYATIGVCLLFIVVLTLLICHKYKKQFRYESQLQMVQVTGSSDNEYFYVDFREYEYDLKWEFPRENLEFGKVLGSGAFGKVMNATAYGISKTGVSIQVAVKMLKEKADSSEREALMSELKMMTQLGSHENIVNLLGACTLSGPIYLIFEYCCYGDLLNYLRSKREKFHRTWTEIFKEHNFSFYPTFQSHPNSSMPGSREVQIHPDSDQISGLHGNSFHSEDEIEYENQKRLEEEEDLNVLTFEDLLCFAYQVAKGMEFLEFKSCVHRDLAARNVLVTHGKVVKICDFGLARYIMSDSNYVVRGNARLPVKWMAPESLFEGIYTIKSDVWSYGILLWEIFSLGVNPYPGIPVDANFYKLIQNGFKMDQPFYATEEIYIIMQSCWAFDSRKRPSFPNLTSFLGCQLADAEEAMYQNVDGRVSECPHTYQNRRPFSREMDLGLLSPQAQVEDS
The assay can be described thus: Enzymatic activity against FLT3 mutants.

Another assay has as its target T12, c-MET (Homo sapiens, UniProt P08581).
T12 construct: purchased Reaction Biology Corp. (Kinase HotSpot service)
The assay can be described thus: Reaction Biology Kinase HotSpot radiometric kinase assay.

A further assay concerns the target T13, RON/MST1R (Homo sapiens, UniProt Q04912).
T13 construct: purchased Reaction Biology Corp. (Kinase HotSpot service)
Described as above.

The target of another assay is T14, FMS (Homo sapiens, UniProt P07333).
T14 construct: purchased Reaction Biology Corp. (Kinase HotSpot service)
The description is as above.

Chain of P38a/MAPK14 (Q16539 whole entry): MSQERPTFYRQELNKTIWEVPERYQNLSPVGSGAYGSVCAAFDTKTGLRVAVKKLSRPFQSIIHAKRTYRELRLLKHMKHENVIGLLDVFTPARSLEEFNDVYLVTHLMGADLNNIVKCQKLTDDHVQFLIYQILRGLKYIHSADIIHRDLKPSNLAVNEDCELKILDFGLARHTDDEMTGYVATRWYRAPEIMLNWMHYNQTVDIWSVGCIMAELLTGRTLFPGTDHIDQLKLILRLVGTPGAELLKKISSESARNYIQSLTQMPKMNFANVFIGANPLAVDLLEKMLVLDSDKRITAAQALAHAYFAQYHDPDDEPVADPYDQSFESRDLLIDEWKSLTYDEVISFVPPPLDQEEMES
T5 sequence (P00519 whole entry): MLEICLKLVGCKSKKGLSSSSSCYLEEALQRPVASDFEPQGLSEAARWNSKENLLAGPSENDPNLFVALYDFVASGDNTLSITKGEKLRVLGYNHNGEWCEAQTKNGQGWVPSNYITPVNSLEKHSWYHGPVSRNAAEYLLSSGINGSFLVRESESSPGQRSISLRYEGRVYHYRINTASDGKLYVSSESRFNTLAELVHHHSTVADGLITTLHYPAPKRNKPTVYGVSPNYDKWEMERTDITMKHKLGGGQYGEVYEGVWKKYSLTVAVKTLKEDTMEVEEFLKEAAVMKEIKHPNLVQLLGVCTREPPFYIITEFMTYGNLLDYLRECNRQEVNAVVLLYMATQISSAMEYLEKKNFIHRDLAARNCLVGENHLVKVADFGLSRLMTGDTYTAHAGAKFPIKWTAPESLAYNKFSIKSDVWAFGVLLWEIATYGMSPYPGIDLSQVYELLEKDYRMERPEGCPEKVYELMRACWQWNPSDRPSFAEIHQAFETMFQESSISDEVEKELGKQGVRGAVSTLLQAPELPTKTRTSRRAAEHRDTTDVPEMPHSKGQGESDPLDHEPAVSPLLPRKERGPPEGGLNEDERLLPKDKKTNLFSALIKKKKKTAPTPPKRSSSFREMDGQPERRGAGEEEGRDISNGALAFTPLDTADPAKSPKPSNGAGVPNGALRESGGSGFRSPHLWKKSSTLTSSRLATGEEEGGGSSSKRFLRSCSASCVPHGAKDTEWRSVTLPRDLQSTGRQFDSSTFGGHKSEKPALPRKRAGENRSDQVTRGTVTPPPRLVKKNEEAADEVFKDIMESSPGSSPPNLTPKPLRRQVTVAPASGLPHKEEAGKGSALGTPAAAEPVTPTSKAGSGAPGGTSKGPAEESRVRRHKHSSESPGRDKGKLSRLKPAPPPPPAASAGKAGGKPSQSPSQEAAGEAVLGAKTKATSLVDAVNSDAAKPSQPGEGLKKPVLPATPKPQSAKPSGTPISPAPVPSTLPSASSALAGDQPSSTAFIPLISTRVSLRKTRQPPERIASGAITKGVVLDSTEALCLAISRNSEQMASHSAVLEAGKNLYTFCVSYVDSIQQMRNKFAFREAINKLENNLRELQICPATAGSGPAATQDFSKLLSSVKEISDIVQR
T14 sequence (P07333 20-972): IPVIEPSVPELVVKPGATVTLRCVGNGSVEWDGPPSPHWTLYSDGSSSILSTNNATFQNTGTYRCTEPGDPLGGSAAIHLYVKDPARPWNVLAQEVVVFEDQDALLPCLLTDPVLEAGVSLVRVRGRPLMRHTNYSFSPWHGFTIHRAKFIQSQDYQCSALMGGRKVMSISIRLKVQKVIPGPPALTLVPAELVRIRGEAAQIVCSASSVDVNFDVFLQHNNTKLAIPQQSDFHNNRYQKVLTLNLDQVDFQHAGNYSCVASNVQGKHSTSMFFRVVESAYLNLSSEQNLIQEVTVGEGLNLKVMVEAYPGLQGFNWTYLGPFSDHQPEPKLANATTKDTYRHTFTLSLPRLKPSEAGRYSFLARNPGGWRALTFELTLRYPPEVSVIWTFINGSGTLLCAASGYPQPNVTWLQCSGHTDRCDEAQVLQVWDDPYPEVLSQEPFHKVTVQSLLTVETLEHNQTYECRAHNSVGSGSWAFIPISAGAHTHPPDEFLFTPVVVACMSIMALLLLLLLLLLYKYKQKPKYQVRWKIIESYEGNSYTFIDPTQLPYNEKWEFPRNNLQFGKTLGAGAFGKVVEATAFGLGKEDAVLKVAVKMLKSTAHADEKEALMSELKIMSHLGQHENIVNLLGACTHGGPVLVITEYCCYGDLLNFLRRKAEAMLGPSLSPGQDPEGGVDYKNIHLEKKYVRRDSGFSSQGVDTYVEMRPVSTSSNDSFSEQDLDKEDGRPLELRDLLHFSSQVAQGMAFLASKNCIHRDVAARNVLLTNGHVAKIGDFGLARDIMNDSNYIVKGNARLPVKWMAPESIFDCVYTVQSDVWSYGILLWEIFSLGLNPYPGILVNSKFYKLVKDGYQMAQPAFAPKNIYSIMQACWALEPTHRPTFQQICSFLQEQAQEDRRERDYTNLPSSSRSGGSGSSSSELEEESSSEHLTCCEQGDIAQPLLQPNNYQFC
T13 sequence (Q04912 25-1400): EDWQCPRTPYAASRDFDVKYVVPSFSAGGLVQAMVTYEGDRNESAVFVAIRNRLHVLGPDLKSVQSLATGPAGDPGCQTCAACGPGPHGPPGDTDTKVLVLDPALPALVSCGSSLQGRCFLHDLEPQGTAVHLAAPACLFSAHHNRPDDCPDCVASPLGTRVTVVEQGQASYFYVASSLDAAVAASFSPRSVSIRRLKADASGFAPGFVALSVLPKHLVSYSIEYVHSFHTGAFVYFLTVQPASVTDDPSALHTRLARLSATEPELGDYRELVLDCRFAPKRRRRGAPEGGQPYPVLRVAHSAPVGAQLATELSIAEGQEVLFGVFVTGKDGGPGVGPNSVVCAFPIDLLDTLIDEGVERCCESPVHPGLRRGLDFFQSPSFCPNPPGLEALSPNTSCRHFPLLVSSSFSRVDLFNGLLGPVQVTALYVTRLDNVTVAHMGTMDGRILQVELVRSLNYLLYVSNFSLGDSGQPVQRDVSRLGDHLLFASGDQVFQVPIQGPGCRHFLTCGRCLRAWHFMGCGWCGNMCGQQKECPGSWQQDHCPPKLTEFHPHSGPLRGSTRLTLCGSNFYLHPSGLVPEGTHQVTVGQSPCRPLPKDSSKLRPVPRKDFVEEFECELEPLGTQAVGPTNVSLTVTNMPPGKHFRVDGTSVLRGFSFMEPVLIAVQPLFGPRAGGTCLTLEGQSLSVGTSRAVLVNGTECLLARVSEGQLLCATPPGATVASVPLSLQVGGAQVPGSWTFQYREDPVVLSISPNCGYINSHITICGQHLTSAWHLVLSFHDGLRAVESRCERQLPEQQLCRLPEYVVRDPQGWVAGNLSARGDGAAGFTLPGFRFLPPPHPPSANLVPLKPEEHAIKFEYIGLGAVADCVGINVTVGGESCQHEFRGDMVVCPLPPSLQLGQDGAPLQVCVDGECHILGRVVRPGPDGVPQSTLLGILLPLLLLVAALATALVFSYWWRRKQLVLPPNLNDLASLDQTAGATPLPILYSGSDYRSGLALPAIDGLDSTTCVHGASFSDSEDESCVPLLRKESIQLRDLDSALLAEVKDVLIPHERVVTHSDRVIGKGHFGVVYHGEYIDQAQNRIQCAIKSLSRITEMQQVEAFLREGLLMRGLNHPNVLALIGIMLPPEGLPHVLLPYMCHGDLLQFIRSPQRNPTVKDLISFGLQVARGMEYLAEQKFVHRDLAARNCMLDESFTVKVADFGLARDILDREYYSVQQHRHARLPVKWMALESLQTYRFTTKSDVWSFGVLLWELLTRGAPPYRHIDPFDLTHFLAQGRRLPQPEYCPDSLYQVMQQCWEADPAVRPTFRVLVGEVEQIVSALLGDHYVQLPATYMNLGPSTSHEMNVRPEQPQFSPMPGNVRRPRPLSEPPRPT
T7 sequence (P06239 whole entry): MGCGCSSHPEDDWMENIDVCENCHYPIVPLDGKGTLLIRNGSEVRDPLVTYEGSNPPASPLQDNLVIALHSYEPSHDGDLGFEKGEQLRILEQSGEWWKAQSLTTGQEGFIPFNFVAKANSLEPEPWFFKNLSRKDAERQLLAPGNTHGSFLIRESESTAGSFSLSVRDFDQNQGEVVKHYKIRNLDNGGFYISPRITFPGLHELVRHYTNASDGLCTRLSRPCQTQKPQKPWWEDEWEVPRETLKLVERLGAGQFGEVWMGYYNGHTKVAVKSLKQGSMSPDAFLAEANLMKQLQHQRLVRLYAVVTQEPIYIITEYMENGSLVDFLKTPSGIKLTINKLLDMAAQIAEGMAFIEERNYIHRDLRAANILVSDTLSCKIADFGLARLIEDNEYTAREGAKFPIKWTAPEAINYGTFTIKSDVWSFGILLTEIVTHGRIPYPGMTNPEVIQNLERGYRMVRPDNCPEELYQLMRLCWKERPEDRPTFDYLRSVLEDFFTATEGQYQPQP
T1 sequence (P53350 whole entry): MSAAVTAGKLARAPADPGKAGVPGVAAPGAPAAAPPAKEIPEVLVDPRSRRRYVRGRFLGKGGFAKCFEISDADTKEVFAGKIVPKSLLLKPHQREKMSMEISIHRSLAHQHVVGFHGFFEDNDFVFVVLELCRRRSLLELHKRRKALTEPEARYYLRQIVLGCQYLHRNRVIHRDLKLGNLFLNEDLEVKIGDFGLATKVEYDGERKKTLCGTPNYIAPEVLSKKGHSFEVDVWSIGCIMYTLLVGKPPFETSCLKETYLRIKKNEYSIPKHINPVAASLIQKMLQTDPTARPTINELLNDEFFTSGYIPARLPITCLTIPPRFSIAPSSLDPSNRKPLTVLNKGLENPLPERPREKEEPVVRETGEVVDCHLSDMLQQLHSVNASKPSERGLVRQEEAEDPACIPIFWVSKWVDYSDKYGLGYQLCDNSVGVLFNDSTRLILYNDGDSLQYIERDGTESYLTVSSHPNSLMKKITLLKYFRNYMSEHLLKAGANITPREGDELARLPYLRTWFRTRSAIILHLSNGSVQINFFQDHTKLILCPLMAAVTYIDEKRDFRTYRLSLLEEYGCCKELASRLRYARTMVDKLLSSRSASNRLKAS

With `Cc1oncc1C(=O)Nc1ccc2cnc(-c3cc(N4CCN(C)CC4)cc(C(F)(F)F)c3)nc2c1` [Compound 7d, 5-methyl-N-(2-(3-(4-methylpiperazin-1-yl)-5-(trifluoromethyl)phenyl)quinazolin-7-yl)isoxazole-4-carboxamide], the inhibition at 10 µM on PLK1 was 0%; against BRAF (V599E), 5.19%; against GSK3b, 8.06%; against ABL1, 6.46%; on FGFR3, 1%; on LCK, 19.7%. Also, the inhibition at 10 µM at EGFR is 0%; on AXL (R499C), 10.1%; at ROS/ROS1, 14.4%; against P38a/MAPK14, 0%; against c-MET, 13.2%; against RON/MST1R, 13.5%. Moreover, at FMS, the inhibition at 10 µM is 5.49%. The IC50 in [1] amounted to 728 nM; against FLT3 (D835Y) (FLT3 (D835Y)) it was 228 nM; against FLT3 (D835Y) (FLT3-TKD (D835Y)) it was 228 nM. The “activity on other kinases in panel (in words)” value in [2] was “almost no activity”. Also, at FLT3 (D835Y), the “decrease of activity against FLT3-TKD (D835Y) compared to FLT3 wild type” value was “about 2 fold”.
